From patent US20040254131A1, “Method for prevention or treatment of diseases or disorders related to excessive formation of vascular tissue or blood vessels” (priority 2003, published 2004)

Assays:
rat NPY Y2 mRNA = assay: Hyperoxia/ischemia-induced retinal neovascularization (retinopathy) in newborn rats; type: in vivo; conditions: for retinal capillary vessel formation in fluorescein images (FIG. 3): fluorescence microscopy of flat-mounted retinas; for Mean ± SD of quantitated neovascularization (amount of retinal vessels crossed by a constant length line): newborn Sprague Dawley rats, cyclic hyperoxia 40%/80% then room air, intraperitoneal treatment, eyes collected at age 20 days
Excerpt: The present study was undertaken to determine the impact of NPY Y2 receptor targeted intervention on neovascularization and development of retinopathy. Development of retinopathy was induced to newborn rats by cyclic hyperoxia and following relative ischemia-induced retinal neovascularization. Hyperoxemia is toxic to developing retinal vessels causing damage and hypoxia in the retina. After moving to normal air, relative hypoxia follows further promoting neovascularization of the retina.
Three groups of rat puppies were subjected for different treatments; 1) vehicle, 2) NPY Y2 receptor targeted antisense oligonucleotide sequence, and 3) scramble oligonucleotide sequence containing the same oligonucleotides as NPY Y2 receptor targeted antisense oligonucleotide sequence. The treatments were administered intraperitoneally. The retinal vessels were investigated and retinopathic changes were compared between treatment groups.
Retinopathy was assessed after injection of fluorescent-labelled dextran to the circulation. The eyes were flat-mounted on slides and the retinal vessels were visualized and investigated by fluorescence microscopy. Statistical differences were calculated between the study groups.
Study protocol was approved by the Joint Ethics Committee of Turku University. Development of retinopathy was induced to newborn rats (Sprague Dawley) by cyclic hyperoxia and following relative ischemia. Hyperoxia is toxic to developing retinal vessels causing damage and hypoxia in the retina, which induces neovascularization. After moving to normal air, relative hypoxia follows further promoting neovascularization of the retina. Hypoxia is one of the major causes of retinal neovascularization in human retinopathies also. The newborn rats were kept in a hyperoxic incubator with their mothers. Retinal neovascularization was induced simultaneously for all three groups of puppies. One treatment group consisted originally of 7 puppies, which underwent cyclic hyperoxia at the age of 3 days, continued until at the age of 14 days and remained in normal room air from the age of 14 to 17 days. The amount of oxygen inside the incubator was kept at 40% and 80% in 12 hour cycles for 10 days (days from 3 to 13).
The three groups of puppies were subjected for different treatments; 1) plain vehicle, 2) NPY Y2 receptor targeted antisense oligodeoxynucleotide sequence (5′-CCTCTGCACCTAATGGGCCC -3′ (SEQ ID NO:38), containing 20 thioate modified bases) diluted in vehicle and 3) scramble oligodeoxynucleotide sequence containing the same deoxynucleotides as NPY Y2 receptor targeted antisense oligodeoxynucleotide sequence but in a random order (5′-CCATGGTAATCCGCCGCTCC-3′ (SEQ ID NO:39), containing 20 thioate modified bases) diluted in vehicle. The treatments were administered intraperitoneally. The retinal vessels were investigated and retinopathic changes were compared between treatment groups. The used NPY Y2 receptor targeted antisense deoxynucleotide sequence was designed complementary to next 20 bases from NPY Y2 gene transcription initiation codon (ATG).
At the age of 20 days, rats were decapitated and eyes were collected. Retinopathy and retinal neovascularization was assessed after an injection of fluorescent-labelled dextran to the circulation trough heart puncture. One eye from each puppy was used for visualization of retinal vessels. The eyes were flat-mounted on slides and the retinal vessels were visualized and investigated by fluorescence microscopy. Pictures of retinas were acquired using a Leica DMR/DC100 microscope and Leica DC Wiever software.
The amount of retinal capillaries was analyzed by counting the amount of vessels crossed by a constant length line using plot profile analysis (Image-J 2.6 program). Each retina was analyzed in 3-5 representative areas and the mean values were used for further statistical analysis. Only unfolded retinal preparations were used in order to avoid artificial images of neovascularization. […]

hTERT-HUVEC cells = assay: Endothelial tube formation assay after liposomal transfection; type: cell-based, human; conditions: for mean ±SEM tube number/well, single nucleotide assay 4A / mean ±SEM tube number/well, single nucleotide assay 4b: oligonucleotide 1 μM, DOTAP/DOPE, 4 h transfection, 3 h on Matrigel; for mean ±SEM tube number/well, single nucleotide assay 4A: non-treated control 60±1.8; for mean ±SEM tube number/well, single nucleotide assay 4b: repeated set, non-treated control 58.0±2.9
Experimental: A further experiment was carried out in order to study the effect of single antisense molecules and their combinations in the prevention of endothelial cell tube formation by immortal human umbilical vein endothelial cells (hTERT-HUVECs).
Immortal human umbilical vein endothelial cells (hTERT-HUVECs) were obtained from Geron Corporation (Menlo Park, Calif., U.S.A.). hTERT-HUVECs were maintained on a gelatin-coated 100-mm dishes (Corning Costar, N.Y., U.S.A) in growth medium, composed of M199 medium (Gibco, Paisley, Scotland) supplement with 15% (v/v) heat-inactivated fetal bovine serum (Gibco BRL), 2 mM L-glutamine (Gibco BRL), 100 units/ml penicillin/streptomycin (Gibco BRL), 10 units/ml heparin (Sigma) and 20 μg/ml endothelial cell growth factor (Roche Biomolecules) at 37° C. in a humified incubator with 5% CO2 atmosphere. Experiments were performed with cells between passages 20 and 24.
The following phosphorothioate oligonucleotides were synthesized: human neuropeptide Y2-receptor mRNA antisense molecules
N-(1-(2,3-dioleoyloxy)propyl)-N,N,N-trimethyl ammonium methylsulfate (DOTAP) and 1,2-dioleoyl-3-phosphatidylethanolamine (DOPE) were purchased from Avanti Polar Lipids. Cationic liposomes composed of DOTAP/DOPE (1:1 by mol) were prepared as previously described (Ruponen et al., 2001 (43)).
hTERT-HUVECs (5×10^4 cells/well) were seeded onto gelatin-coated 48-multiwell plates (Corning Costar, N.Y., U.S.A) and incubated overnight. For transfection, the growth medium was replaced with 400 μl of transfection medium (M199 medium supplement with 2 mM L-glutamine and 100 units/ml penicillin/streptomycin). Oligonucleotides (final concentration 1 μM) and DOTAP/DOPE liposomes in sterile water were first diluted in MES-HEPES buffered saline (50 mM MES, 50 mM HEPES, 75 mM NaCl, pH 7.2) and then mixed together at a charge ratio +1. The transfection mixture was allowed to stand at room temperature for 20 min and the oligonucleotide/liposome complexes (100 μl) were added dropwise to each well.
After transfection for 4 h hTERT-HUVECs were harvested after trypsin treatment, suspended in growth medium (200 μl) and seeded in growth factor-reduced Matrigel (BD Biosciences) coated 96-well plates (Corning Costar, N.Y., U.S.A). After incubation for 3 h cells were fixed in 4% paraformaldehyde. The formation of tubular structures in each well (7 fields/well) was digitally captured using a Nicon Eclipse TE300 Inverted Microscope (Nicon, Tokyo, Japan) equipped with a Nicon F-601 digital camera (Nicon, Tokyo, Japan). Photographs were taken at 4× magnification.
The efficacy in prevention of formation of tubular structures by hTERT-HUVECs of all 5 synthesized antisense molecules were compared against each others alone and in combination. The number of tubular structures was analyzed by using Adobe Photoshop 5.5 (Adobe Systems Inc., San Jose, Calif., U.S.A) and the results were expressed as means ±SEM of three independent experiments. A set of three experiments was repeated.

Substance | retinal capillary vessel formation in fluorescein images (FIG. 3) (rat NPY Y2 mRNA) | Mean ± SD of quantitated neovascularization (amount of retinal vessels crossed by a constant length line) (rat NPY Y2 mRNA) | mean ±SEM tube number/well, single nucleotide assay 4A (hTERT-HUVEC cells) [tube number/well] | mean ±SEM tube number/well, single nucleotide assay 4b (hTERT-HUVEC cells) [tube number/well] | other results
5′-CCATGGTAATCCGCCGCTCC-3′ (CCATGGTAATCCGCCGCTCC; DNA, all phosphorothioate, methylation of C not given here; listed as Rattus sp.) [Scramble, scramble oligodeoxynucleotide, same deoxynucleotides as the Y2 antisense in random order, reference compound] | irregular and disrupted | 31.12 ± 0.93 | – | – | difference in retinal neovascularization versus vehicle treatment group (rat NPY Y2 mRNA; post hoc comparison): no difference
5′-CCCAGGTTATCCACGTCTCC-3′ (DNA, all phosphorothioate, methylation of C not given here; listed as Homo sapiens) [AS-1 control, control oligonucleotide for AS-1, reference compound] | – | – | 49.3±8.2 | 57.0±7.0 | –
5′-CCTCTGCACCTAATGGGCCC -3′ (antisense CCTCTGCACCTAATGGGCCC; DNA, all phosphorothioate, methylation of C not given here; listed as Rattus sp.) [Y2-antisense, NPY Y2 receptor targeted antisense oligodeoxynucleotide corresponding to rat NPY Y2 mRNA] | regular and continuous | 24.58 ± 0.84 | – | – | mean difference in neovascularization compared to vehicle treatment group (rat NPY Y2 mRNA; post hoc Tukey HSD, p<0.001, 95% CI 2.48-8.33): 5.40; mean difference in neovascularization compared to scramble treatment group (rat NPY Y2 mRNA; post hoc Tukey HSD, p<0.001, 95% CI 3.76-9.31): 6.53
5′-CCTCTGCACCTATTGGACCC-3′ (DNA, all phosphorothioate, methylation of C not given here; listed as Homo sapiens) [AS-1, human neuropeptide Y2-receptor mRNA antisense molecule] | – | – | 44.0±5.6 | 54.3±10.1 | –
5′-GGCCACTGTTCTTTCTGACC-3′ (DNA, all phosphorothioate, methylation of C not given here; listed as Homo sapiens) [AS-3, human neuropeptide Y2-receptor mRNA antisense molecule] | – | – | 28±7.1 | 23.0±6.7 | efficacy in prevention of tubular structures formation by hTERT-HUVECs (ranking in words) (hTERT-HUVEC cells; FIGS. 4A-4D): best efficacy
5′-GTTTGTGGCCCGTATTGTTCC-3′ (DNA, all phosphorothioate, methylation of C not given here; listed as Homo sapiens) [AS-2, human neuropeptide Y2-receptor mRNA antisense molecule] | – | – | 70.3±11.3 | 75.0±7.5 | –
